What all share (settings): exposure time: 90 min
The test system of test [1] is 1518 (donor line of iPSC-derived cardiomyocytes). The test can be described thus: POD (EC05) for increase in beat frequency (positive chronotrope) vs vehicle; higher = less potent (higher point of departure). An outline of the steps:
(§1)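 Ca2+ flux in human iPSC-derived cardiomyocytes from 16 donors was recorded on a FLIPR Tetra for 100 s before and after a 90 min exposure at 37 °C to 0.1, 1, 10 and 100 µM (final, 0.5% DMSO). Donor-specific points of departure came from hierarchical Bayesian Hill fits to vehicle-normalised beat frequency, decay-to-rise ratio or peak frequency. A 5% change served as threshold, except for peak frequency, where it was a 95% loss.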

Test [2] concerns 1531 (donor line of iPSC-derived cardiomyocytes). The test is described as above. An outline of the steps:
as §1

Test [3] concerns 20084 (donor line of iPSC-derived cardiomyocytes). Described as above. The procedure, abridged: as §1
Test [4] concerns 1535 (donor line of iPSC-derived cardiomyocytes). Described as above. The procedure, abridged: as §1
Test [5] relates to 1518. Nature of the test: POD (EC95) for loss of peak frequency (asystole) vs vehicle; higher = less potent (higher point of departure). An outline of the steps:
as §1

The next test has as its system 1434 (donor line of iPSC-derived cardiomyocytes). The description is as above. The procedure, abridged: as §1
The subject of another test is 1309 (donor line of iPSC-derived cardiomyocytes). The test is described as above. The procedure, abridged: as §1
Test [6] has as its system 1531. The test is described as above. An outline of the steps:
as §1

The test system of the next test is 1565 (donor line of iPSC-derived cardiomyocytes). The test is described as above. The procedure, abridged: as §1
The test system of a further test is 1118 (donor line of iPSC-derived cardiomyocytes). Described as above. The procedure, abridged:
as §1

The subject of another test is 30171 (donor line of iPSC-derived cardiomyocytes). Described as above. The procedure, abridged: as §1
A further test relates to 1083 (donor line of iPSC-derived cardiomyocytes). Described as above. An outline of the steps: as §1
Test [7] concerns 20084. Described as above. The procedure, abridged:
as §1

In test [8] the test system is 1535. The description is as above. An outline of the steps: as §1
The subject of a further test is 20032 (donor line of iPSC-derived cardiomyocytes). Described as above. An outline of the steps:
as §1

The subject of another test is 1392 (donor line of iPSC-derived cardiomyocytes). The test is described as above. An outline of the steps: as §1
A further test deals with 30145 (donor line of iPSC-derived cardiomyocytes). The description is as above. The procedure, abridged:
as §1

The subject of a further test is 11235 (donor line of iPSC-derived cardiomyocytes). The description is as above. An outline of the steps: as §1
For the next test, the system named is 1516 (donor line of iPSC-derived cardiomyocytes). The description is as above. An outline of the steps: as §1
Another test relates to 1368 (donor line of iPSC-derived cardiomyocytes). The test is described as above. The procedure, abridged:
as §1

The structures appear in SMILES notation.

With `O=S(=O)(O)C(F)(F)C(F)(F)C(F)(F)C(F)(F)C(F)(F)C(F)(F)C(F)(F)C(F)(F)F` [Perfluorooctanesulfonic_acid], the POD vs vehicle with 1518 [1], in the test on 1531 [2], with 20084 [3], with 1535 [4], with 1518 [5] and with 1434 was above 100 µM in each case. The POD vs vehicle in the test on 1309, in the test with 1531 [6], in the test on 1565, with 1118, with 30171 and in the test on 1083 was above 100 µM throughout. Moreover, the POD vs vehicle in the test with 20084 [7] was above 100 µM; in the test on 1535 [8] it was above 100 µM; in the test with 20032, above 100 µM; in the test on 1392 it was above 100 µM; with 30145 it was above 100 µM; with 11235 it was 12.5 µM. Also, the POD vs vehicle with 1516 and in the test on 1368 was above 100 µM each time.

In the case of `O=C(O)C(F)(F)C(F)(F)C(F)(F)C(F)(F)C(F)(F)C(F)(F)C(F)(F)F` [Perfluorooctanoic_acid], the POD vs vehicle in the test on 1518 [1], in the test on 1531 [2], with 20084 [3], in the test on 1535 [4], in the test on 1518 [5] and with 1434 was above 100 µM throughout. In addition, the POD vs vehicle with 1309, in the test with 1531 [6], in the test on 1565, in the test with 1118, with 30171 and in the test with 1083 was above 100 µM throughout. For the same molecule, the POD vs vehicle in the test with 20084 [7] is above 100 µM; with 1535 [8], above 100 µM; in the test on 20032, above 100 µM; in the test on 1392 it was above 100 µM; in the test with 30145 it was above 100 µM; in the test with 11235, 92.2 µM. Further, the POD vs vehicle in the test on 1516 and in the test with 1368 was above 100 µM each time.

Consider `O=C(O)C(F)(F)C(F)(F)C(F)(F)C(F)(F)F` [Perfluoropentanoic_acid], for which the POD vs vehicle with 1518 [1], in the test with 1531 [2], in the test with 20084 [3], in the test with 1535 [4], in the test with 1518 [5] and in the test with 1434 was above 100 µM throughout. Also, the POD vs vehicle with 1309, in the test on 1531 [6], with 1565, with 1118, with 30171 and with 1083 was above 100 µM in each case. The POD vs vehicle in the test with 20084 [7], in the test with 1535 [8], in the test on 20032, in the test with 1392, in the test on 30145 and in the test on 11235 was above 100 µM in each case. Besides, the POD vs vehicle in the test on 1516 and in the test on 1368 was above 100 µM each time.

As to `O=C(O)C(F)(F)C(F)(F)F` [Perfluoropropanoic_acid], the POD vs vehicle with 1518 [1], with 1531 [2], in the test on 20084 [3], in the test on 1535 [4], in the test on 1518 [5] and in the test with 1434 was above 100 µM throughout. In addition, the POD vs vehicle in the test on 1309, in the test on 1531 [6], in the test with 1565, with 1118, in the test on 30171 and with 1083 was above 100 µM each time. The POD vs vehicle with 20084 [7], with 1535 [8], in the test on 20032, with 1392, in the test with 30145 and with 11235 was above 100 µM each time. Also, the POD vs vehicle with 1516 and in the test on 1368 was above 100 µM each time.

Take `O=C(O)C(F)(F)C(F)(F)C(F)(F)C(F)(F)C(F)(F)C(F)(F)C(F)(F)C(F)(F)C(F)(F)C(F)(F)F` [Perfluoroundecanoic_acid]: the POD vs vehicle in the test with 1518 [1], with 1531 [2], in the test on 20084 [3], in the test on 1535 [4], in the test with 1518 [5] and in the test on 1434 was above 100 µM each time. Further, the POD vs vehicle in the test with 1309, with 1531 [6], with 1565, in the test with 1118, in the test on 30171 and in the test on 1083 was above 100 µM in each case. In addition, the POD vs vehicle with 20084 [7] is above 100 µM; with 1535 [8] it was above 100 µM; in the test on 20032, above 100 µM; with 1392 it was above 100 µM; in the test with 30145 it was above 100 µM; in the test on 11235 it was 95.4 µM. Besides, the POD vs vehicle in the test on 1516 and in the test on 1368 was above 100 µM each time.

In the case of `O=S(=O)([O-])C(F)(F)C(F)(F)C(F)(F)C(F)(F)F.[K+]` [Potassium_perfluorobutanesulfonate], the POD vs vehicle in the test with 1518 [1], in the test with 1531 [2], with 20084 [3], with 1535 [4], in the test on 1518 [5] and in the test with 1434 was above 100 µM in each case. Also, the POD vs vehicle with 1309, with 1531 [6], in the test on 1565, with 1118, in the test on 30171 and in the test with 1083 was above 100 µM throughout. Further, the POD vs vehicle in the test on 20084 [7], in the test with 1535 [8], in the test with 20032, with 1392, in the test with 30145 and with 11235 was above 100 µM in each case. In addition, the POD vs vehicle with 1516 and in the test on 1368 was above 100 µM in each case.

The values are drawn from the supplement of paper PMC11368000.
